In series [1] the target is Epidermal growth factor receptor (Homo sapiens, UniProt P00533). Put plainly: Inhibitory activity against EGFR.
Another series concerns LoVo. The series is described as follows: Inhibition of tumor volume in human LoVo cell xenografted in mice at 100 mg/kg, po. As to conditions: Mus musculus, read-out: Inhibition. (A xenograft is tissue or cells of one species grown in another, often human tumour cells in immunodeficient mice.)
The nature of series [2]: Percent of unbound ligand in mouse plasma at 5 mg/kg, po and 2 mg/kg, iv. The format is ADME, organism-based.
Series [3] can be described thus: Plasma clearance in mouse at 5 mg/kg, po and 2 mg/kg, iv. The format is ADME, organism-based.
Series [4] in a line: Volume of distribution in mouse at 5 mg/kg, po and 2 mg/kg, iv. As to conditions: in vivo, read-out: Vdss. The format is ADME, organism-based.
The nature of series [5]: Half life in mouse at 5 mg/kg, po and 2 mg/kg, iv. The format is ADME, organism-based. As to conditions: in vivo.
The nature of series [6]: Bioavailability in mouse at 5 mg/kg, po and 2 mg/kg, iv. The format is ADME, organism-based. The settings on record: in vivo.
Series [7] is described as follows: Percent of unbound ligand in rat plasma at 5 mg/kg, po and 2 mg/kg, iv. The class given is ADME, organism-based.
A short description of series [8]: Volume of distribution in rat at 5 mg/kg, po and 2 mg/kg, iv. The format is ADME, organism-based. The settings on record: in vivo, read-out: Vdss.
A short description of series [9]: Plasma clearance in rat at 5 mg/kg, po and 2 mg/kg, iv. The format is ADME, organism-based.
Series [10] is described as follows: Half life in rat at 5 mg/kg, po and 2 mg/kg, iv. The format is ADME, organism-based. The settings on record: in vivo.
Series [11] in a line: Bioavailability in rat at 5 mg/kg, po and 2 mg/kg, iv. The format is ADME, organism-based. As to conditions: in vivo.

pIC50: −log10 of the molar value.

Chain of Epidermal growth factor receptor (P00533 whole entry): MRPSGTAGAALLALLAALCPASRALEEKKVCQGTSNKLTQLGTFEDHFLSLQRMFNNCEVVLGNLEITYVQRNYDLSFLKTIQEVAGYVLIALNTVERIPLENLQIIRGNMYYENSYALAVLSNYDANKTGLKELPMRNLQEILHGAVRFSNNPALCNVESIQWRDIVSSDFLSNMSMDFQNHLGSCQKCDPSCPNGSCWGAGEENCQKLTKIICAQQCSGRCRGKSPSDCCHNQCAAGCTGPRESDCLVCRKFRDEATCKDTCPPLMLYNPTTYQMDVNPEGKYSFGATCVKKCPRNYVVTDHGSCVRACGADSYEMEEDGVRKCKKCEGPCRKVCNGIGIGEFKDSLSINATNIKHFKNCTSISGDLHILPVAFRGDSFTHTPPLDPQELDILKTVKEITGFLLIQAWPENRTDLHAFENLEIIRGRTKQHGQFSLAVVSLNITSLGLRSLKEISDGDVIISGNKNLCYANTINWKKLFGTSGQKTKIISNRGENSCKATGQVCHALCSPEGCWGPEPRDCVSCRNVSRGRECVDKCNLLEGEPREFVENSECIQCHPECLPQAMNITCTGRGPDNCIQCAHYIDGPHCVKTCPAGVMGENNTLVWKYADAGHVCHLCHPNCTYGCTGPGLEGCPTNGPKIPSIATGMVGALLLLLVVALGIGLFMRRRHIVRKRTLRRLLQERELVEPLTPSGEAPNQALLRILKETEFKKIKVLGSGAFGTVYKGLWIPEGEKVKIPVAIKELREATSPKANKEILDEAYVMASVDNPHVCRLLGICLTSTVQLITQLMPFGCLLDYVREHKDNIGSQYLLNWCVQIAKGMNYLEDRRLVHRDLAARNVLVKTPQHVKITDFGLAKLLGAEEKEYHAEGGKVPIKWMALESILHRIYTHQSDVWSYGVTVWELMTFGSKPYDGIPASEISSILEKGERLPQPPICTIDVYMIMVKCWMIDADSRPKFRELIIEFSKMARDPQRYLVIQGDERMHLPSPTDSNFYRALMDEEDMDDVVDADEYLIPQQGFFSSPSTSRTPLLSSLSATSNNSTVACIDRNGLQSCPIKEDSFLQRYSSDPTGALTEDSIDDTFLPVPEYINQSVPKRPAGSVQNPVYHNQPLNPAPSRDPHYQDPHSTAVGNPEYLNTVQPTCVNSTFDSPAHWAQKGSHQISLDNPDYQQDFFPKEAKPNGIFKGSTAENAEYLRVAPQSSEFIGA

As a reminder, the pIC50 is the IC50 on a negative log10 scale, so that one unit is a factor of ten. Higher therefore signals a small IC50. As to `COc1ccc2ncnc(Nc3ccc(F)c(Cl)c3)c2c1OC1CCN(C)CC1`, in series [1], the pIC50 is 6.65. The compound `COc1cc(OC2CCNCC2)c2c(Nc3ccc(F)c(Cl)c3)ncnc2c1` had a pIC50 in series [1] of 8.00. Consider `COc1cc(OC(C)C)c2c(Nc3ccc(F)c(Cl)c3)ncnc2c1`, for which the negative-log IC50 (pIC50) in series [1] is 5.09.

`CCN1CCC(Oc2cc(OC)cc3ncnc(Nc4ccc(F)c(Cl)c4)c23)CC1` gave a pIC50 in series [1] of over 8.70. `COc1cc(OC2CCN(S(C)(=O)=O)CC2)c2c(Nc3ccc(F)c(Cl)c3)ncnc2c1` gave a pIC50 in series [1] of 5.02.

The fraction unbound is the share of the substance not bound to proteins or other matrix. Higher therefore signals much free substance. What is called half-life is how long it takes for the measured level to halve. For `COc1cc(OC2CCN(C)CC2)c2c(Nc3ccc(F)c(Cl)c3)ncnc2c1`, the inhibition in vivo at 100 mg/kg in the series on LoVo was found to be 60%. This compound had a pIC50 in [1] of 7.68. For the same compound, the free fraction (fraction unbound) in [2] is 0.0311; in series [7], 0.0251. Further, the clearance in [3] was 20 mL/min/kg; in series [9], 66 mL/min/kg. Moreover, the Vd in series [4] is 8.2 L/kg; in series [8], 12.3 L/kg. Also, the figures for the half-life in [5] and in series [10] were 5.2 h and 2.9 h, respectively. Also, the bioavailability came to 103% in series [6] and 63% in [11]. Regarding `COc1cc(OC2CCN(C(C)=O)CC2)c2c(Nc3ccc(F)c(Cl)c3)ncnc2c1`, the negative logarithm of the IC50 (pIC50) in [1] is 6.06. In turn, `CN1CCN(CCCOc2cc(OC3CCOCC3)c3c(Nc4ccc(F)c(Cl)c4)ncnc3c2)CC1` gave a pIC50 in series [1] of 7.18. Against the preceding compound, the pIC50 is 1.12 log units higher. Regarding `CN1CCC(Oc2cccc3ncnc(Nc4ccc(F)c(Cl)c4)c23)CC1`, the negative logarithm of the IC50 (pIC50) in series [1] is 8.52. Compared with the last compound, the pIC50 is 1.34 log units higher. Compound `CCCN1CCC(Oc2cc(OC)cc3ncnc(Nc4ccc(F)c(Cl)c4)c23)CC1` gave a negative-log IC50 (pIC50) in [1] of over 8.70. In series [1], `COCCOc1cc(OC2CCOCC2)c2c(Nc3ccc(F)c(Cl)c3)ncnc2c1` had a pIC50 of 6.17. `COc1cc(OC2CCOCC2)c2c(Nc3ccc(F)c(Cl)c3)ncnc2c1` had a negative logarithm of the IC50 (pIC50) in series [1] of 5.86.
